The values that follow come from ChEMBL document CHEMBL5291721, “A preclinical secondary pharmacology resource illuminates target-adverse drug reaction associations of marketed drugs” (Nat Commun, 2023).

In experiment [1] the target is Epidermal growth factor receptor (Homo sapiens, UniProt P00533). The class given is functional.
The target of experiment [2] is T1, Glucocorticoid receptor (Homo sapiens, UniProt P04150).
T1 sequence (P04150 whole entry): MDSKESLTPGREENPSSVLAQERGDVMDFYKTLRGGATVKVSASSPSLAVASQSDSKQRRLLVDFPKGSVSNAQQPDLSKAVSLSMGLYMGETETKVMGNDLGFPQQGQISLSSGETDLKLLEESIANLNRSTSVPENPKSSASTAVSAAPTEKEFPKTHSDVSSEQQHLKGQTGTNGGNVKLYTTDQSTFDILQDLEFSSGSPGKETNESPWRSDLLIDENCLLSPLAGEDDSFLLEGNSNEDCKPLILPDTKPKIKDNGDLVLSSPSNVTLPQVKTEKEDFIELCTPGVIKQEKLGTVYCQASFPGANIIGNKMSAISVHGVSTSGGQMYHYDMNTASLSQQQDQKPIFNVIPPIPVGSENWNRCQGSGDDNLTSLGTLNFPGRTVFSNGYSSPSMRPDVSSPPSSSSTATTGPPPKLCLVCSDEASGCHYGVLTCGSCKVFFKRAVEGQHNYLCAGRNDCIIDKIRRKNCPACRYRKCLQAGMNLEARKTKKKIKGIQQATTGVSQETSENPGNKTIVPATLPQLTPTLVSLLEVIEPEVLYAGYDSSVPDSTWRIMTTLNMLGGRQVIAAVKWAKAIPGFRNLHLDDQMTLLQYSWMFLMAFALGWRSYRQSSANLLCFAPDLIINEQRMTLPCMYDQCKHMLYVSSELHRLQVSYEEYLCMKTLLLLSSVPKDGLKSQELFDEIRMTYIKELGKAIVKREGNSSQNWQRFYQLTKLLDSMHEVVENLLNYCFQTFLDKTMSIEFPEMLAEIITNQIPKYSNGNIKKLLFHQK
The format is functional.

Experiment [3] has as its target D(1A) dopamine receptor (Homo sapiens, UniProt P21728). The format is functional, cell-based.
The target in experiment [4] is T2, Estrogen receptor (Homo sapiens, UniProt P03372).
T2 sequence (P03372 whole entry): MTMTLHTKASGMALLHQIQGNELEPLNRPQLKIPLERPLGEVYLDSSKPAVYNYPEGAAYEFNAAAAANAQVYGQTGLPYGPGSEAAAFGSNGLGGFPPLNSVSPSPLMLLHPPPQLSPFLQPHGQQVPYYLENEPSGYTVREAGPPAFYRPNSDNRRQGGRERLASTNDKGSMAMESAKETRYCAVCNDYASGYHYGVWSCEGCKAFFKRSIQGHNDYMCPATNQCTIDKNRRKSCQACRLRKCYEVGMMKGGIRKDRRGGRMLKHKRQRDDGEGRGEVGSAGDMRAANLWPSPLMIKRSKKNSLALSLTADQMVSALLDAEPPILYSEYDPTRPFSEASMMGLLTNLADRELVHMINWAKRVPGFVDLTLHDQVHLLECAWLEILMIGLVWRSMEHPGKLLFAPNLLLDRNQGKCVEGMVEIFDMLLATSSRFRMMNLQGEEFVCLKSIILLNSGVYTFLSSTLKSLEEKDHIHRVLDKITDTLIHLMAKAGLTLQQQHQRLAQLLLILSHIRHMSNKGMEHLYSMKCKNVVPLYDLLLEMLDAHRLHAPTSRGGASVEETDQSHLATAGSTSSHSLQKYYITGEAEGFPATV
The class given is functional.

The target of experiment [5] is Mu-type opioid receptor (Homo sapiens, UniProt P35372). Kind of experiment: biochemical. The format is functional.
Experiment [6] has as its target T2, Estrogen receptor. The class given is functional. The source holds these as a separate data set.
For experiment [7], the target named is Receptor tyrosine-protein kinase erbB-2 (Homo sapiens, UniProt P04626). The format is functional.
The target of experiment [8] is T1, Glucocorticoid receptor. The class given is functional. This is another data set of the same source.
For experiment [9], the target named is T3, B1 bradykinin receptor (Homo sapiens, UniProt P46663).
T3 sequence (P46663 whole entry): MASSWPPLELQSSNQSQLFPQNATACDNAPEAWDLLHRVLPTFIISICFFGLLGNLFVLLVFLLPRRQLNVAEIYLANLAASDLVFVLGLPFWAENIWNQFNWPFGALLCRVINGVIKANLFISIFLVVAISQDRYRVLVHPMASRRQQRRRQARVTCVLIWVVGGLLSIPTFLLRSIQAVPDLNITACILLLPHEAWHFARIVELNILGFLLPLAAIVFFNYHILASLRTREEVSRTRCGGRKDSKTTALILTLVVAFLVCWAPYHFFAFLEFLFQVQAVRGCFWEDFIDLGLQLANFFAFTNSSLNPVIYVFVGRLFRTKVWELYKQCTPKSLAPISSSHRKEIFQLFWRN

Experiment [10] concerns the target T4, Muscarinic acetylcholine receptor M2 (Homo sapiens, UniProt P08172).
T4 sequence (P08172 whole entry): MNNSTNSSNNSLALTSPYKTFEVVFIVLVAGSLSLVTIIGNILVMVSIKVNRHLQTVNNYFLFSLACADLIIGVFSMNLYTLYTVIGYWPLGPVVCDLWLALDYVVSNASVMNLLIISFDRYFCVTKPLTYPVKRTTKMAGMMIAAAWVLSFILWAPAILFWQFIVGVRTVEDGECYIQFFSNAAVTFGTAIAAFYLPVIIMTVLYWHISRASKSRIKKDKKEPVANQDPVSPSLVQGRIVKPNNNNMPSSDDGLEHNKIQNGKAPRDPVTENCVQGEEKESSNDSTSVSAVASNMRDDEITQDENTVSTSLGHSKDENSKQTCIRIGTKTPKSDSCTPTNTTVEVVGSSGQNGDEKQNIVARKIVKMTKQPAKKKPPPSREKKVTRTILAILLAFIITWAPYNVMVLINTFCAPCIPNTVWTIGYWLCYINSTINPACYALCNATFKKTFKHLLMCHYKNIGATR

In experiment [11] the target is Voltage-dependent N-type calcium channel subunit alpha-1B (Rattus norvegicus, UniProt Q02294). The class given is functional.
Chain of Voltage-dependent N-type calcium channel subunit alpha-1B (Q02294 whole entry): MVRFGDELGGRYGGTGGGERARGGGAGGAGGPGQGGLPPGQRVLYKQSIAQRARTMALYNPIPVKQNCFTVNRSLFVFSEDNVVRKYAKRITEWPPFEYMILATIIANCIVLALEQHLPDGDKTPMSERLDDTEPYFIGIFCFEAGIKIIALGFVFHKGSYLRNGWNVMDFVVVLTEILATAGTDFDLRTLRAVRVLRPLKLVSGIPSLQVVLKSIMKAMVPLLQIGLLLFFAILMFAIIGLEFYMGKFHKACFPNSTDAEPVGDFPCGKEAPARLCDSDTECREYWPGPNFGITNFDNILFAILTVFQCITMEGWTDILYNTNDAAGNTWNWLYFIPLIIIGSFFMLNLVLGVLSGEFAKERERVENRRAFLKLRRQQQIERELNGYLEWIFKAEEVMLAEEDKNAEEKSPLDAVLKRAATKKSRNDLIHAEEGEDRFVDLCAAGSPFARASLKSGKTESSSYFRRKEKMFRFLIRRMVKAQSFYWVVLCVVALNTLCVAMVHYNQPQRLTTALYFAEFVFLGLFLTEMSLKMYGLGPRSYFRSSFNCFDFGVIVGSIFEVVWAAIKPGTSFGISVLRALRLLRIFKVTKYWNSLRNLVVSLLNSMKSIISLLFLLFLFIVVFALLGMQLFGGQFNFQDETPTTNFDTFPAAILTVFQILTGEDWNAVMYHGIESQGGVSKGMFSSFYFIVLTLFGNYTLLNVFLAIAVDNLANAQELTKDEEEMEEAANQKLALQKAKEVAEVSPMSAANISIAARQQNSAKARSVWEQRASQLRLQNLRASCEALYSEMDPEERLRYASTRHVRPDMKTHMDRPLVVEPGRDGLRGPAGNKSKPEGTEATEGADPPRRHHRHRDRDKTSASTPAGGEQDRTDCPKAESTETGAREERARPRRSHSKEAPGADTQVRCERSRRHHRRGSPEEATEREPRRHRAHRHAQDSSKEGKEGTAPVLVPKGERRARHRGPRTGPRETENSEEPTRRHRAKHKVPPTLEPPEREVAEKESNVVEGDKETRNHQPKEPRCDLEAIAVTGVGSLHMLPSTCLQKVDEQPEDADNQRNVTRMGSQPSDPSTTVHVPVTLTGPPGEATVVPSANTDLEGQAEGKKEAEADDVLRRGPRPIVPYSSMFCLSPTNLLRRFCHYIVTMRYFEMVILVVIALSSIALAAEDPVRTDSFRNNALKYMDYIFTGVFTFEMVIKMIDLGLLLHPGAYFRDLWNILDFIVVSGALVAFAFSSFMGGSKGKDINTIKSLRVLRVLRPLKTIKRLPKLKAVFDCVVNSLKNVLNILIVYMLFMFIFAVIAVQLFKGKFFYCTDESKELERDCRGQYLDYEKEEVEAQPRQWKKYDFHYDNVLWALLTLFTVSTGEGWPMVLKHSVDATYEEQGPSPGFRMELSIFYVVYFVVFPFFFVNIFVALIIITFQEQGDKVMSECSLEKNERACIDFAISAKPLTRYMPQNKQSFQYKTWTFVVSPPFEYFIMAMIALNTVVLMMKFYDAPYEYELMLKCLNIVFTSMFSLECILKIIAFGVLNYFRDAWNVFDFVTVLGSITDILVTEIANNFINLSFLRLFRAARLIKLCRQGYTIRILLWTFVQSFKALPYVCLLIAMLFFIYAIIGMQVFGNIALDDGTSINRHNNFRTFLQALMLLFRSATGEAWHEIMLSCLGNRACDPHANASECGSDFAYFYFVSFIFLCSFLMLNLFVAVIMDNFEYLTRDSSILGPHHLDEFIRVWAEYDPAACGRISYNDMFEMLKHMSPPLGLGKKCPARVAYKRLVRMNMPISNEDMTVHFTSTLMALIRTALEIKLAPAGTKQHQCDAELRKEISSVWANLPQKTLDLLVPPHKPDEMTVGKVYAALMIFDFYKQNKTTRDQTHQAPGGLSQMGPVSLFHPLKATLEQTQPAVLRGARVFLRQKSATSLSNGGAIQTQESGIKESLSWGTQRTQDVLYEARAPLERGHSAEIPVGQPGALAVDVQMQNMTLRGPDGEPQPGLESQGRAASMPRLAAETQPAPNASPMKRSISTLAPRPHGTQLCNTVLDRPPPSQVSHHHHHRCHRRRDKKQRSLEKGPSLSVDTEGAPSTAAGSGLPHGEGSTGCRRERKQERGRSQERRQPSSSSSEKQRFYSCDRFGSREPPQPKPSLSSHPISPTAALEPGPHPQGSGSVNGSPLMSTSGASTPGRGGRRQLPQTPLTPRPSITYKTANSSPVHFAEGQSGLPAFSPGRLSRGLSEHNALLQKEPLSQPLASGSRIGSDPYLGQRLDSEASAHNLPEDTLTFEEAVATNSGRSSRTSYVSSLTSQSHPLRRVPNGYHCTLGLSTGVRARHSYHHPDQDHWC
Experiment [12] addresses Histamine H2 receptor (Homo sapiens, UniProt P25021).
In experiment [13] the target is Estrogen receptor beta (Homo sapiens, UniProt Q92731).
Chain of Estrogen receptor beta (Q92731 whole entry): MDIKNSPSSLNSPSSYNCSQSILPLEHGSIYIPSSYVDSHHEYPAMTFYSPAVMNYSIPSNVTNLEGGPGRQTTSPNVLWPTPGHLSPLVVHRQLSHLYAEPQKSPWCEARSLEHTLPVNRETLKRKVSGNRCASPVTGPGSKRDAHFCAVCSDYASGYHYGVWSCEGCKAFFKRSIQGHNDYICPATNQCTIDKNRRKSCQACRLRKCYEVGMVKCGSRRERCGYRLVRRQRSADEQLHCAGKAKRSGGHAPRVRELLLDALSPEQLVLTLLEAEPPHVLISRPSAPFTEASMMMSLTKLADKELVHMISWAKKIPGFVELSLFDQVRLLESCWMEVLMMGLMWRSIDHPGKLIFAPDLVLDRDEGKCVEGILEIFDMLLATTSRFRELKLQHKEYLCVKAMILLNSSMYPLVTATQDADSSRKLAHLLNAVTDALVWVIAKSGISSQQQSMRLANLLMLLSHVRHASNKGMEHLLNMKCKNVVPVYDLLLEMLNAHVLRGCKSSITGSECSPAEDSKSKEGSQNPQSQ
Also: assay procedure not described here.

Chain of D(1A) dopamine receptor (P21728 whole entry): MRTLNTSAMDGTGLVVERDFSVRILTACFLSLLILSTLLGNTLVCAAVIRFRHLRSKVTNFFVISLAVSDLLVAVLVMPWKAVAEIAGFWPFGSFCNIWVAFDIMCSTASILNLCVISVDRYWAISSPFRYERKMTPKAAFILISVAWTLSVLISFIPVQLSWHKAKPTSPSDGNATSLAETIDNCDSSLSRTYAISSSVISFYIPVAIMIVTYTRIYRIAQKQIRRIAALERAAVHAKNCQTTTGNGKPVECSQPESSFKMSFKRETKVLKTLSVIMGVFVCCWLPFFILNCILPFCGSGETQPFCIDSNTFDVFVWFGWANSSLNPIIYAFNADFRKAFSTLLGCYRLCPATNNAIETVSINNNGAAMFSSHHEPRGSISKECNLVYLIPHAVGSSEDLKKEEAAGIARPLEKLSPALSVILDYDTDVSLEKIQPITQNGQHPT
Chain of Histamine H2 receptor (P25021 whole entry): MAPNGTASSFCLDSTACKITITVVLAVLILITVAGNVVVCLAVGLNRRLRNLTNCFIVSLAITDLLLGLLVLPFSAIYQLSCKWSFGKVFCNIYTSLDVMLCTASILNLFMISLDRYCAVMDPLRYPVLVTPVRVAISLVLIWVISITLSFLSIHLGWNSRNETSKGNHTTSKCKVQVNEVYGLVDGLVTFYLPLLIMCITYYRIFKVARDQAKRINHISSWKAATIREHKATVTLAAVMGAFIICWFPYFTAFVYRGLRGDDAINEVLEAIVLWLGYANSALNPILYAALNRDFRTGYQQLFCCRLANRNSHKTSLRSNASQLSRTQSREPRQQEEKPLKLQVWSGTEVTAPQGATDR
Chain of Epidermal growth factor receptor (P00533 whole entry): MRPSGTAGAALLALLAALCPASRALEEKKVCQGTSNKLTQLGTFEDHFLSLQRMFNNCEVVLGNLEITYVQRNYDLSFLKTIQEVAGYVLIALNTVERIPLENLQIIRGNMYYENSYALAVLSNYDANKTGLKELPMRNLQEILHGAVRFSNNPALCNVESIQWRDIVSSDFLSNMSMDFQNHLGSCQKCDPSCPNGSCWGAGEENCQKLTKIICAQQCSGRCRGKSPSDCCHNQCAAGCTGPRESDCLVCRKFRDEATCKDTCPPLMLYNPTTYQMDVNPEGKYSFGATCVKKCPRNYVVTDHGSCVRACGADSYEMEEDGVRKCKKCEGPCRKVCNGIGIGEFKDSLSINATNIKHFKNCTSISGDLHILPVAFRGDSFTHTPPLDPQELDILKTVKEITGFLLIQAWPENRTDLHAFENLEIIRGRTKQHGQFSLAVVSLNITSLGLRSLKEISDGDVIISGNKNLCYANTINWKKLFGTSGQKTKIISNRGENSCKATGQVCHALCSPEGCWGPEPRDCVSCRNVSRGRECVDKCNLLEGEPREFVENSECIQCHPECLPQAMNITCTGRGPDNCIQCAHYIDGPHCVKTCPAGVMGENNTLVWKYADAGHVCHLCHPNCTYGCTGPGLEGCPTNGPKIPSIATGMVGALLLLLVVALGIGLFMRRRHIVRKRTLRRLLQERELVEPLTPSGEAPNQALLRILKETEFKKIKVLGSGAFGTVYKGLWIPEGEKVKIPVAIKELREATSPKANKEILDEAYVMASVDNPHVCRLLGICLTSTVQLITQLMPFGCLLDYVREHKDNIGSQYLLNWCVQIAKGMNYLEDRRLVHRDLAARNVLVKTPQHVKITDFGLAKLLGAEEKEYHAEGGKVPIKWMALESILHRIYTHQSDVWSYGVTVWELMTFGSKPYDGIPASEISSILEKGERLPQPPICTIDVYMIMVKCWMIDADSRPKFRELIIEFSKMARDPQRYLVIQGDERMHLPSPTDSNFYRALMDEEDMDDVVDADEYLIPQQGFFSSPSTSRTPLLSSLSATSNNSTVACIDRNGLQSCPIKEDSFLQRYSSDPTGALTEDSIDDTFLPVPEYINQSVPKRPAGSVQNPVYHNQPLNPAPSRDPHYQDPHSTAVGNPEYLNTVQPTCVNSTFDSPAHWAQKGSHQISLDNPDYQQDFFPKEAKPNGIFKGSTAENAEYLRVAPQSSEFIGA

With `c1ccc([C@H]2CN3CCSC3=N2)cc1` [LEVAMISOLE], the AC50 in [1], in [2], in [3], in [4], in experiment [5] and in experiment [6] was greater than 30 µM in each case. Besides, the AC50 in experiment [7] and in experiment [8] was greater than 30 µM in each case.
`Cn1nnc2c(C(N)=O)ncn2c1=O` [TEMOZOLOMIDE]: the concentration at half-maximal activity (AC50) (in general, the midpoint of the concentration-response curve, whichever way the signal moves) is greater than 30 µM in [9]; greater than 10 µM in experiment [10]; greater than 30 µM in experiment [1]; greater than 10 µM in experiment [11]; greater than 30 µM in [3]; greater than 30 µM in [4]. The AC50 was greater than 30 µM in experiment [6], greater than 30 µM in [7], greater than 10 µM in experiment [12] and greater than 30 µM in experiment [13].
Take `O=C(OCC(O)CO)c1ccccc1Nc1ccnc2cc(Cl)ccc12` (stereo unspecified) [GLAFENINE]: the AC50 in experiment [1] is greater than 30 µM; in experiment [3], greater than 30 µM; in experiment [4], greater than 30 µM; in experiment [6], greater than 10 µM; in [7] it was greater than 30 µM.
Take `CCCN1C[C@H](CSC)C[C@@H]2c3cccc4[nH]cc(c34)C[C@H]21` [PERGOLIDE]: the half-maximal activity concentration (AC50) in [9] was greater than 30 µM; in experiment [10], greater than 10 µM; in [1] it was greater than 30 µM; in [11], greater than 10 µM; in experiment [2], greater than 30 µM; in experiment [4], greater than 30 µM. Moreover, the AC50 is greater than 30 µM in experiment [6], 3.77 µM in experiment [12], greater than 30 µM in [8] and greater than 30 µM in [13].
Regarding `NCC(CC(=O)O)c1ccc(Cl)cc1` (stereo unspecified) [BACLOFEN], the AC50 was greater than 30 µM in experiment [9]; greater than 10 µM in [10]; greater than 30 µM in [1]; greater than 10 µM in [11]; greater than 30 µM in experiment [2]; greater than 30 µM in experiment [3]. Besides, the AC50 in experiment [7] is greater than 30 µM; in experiment [12], greater than 10 µM; in experiment [8] it was greater than 30 µM; in experiment [13] it was greater than 30 µM.
As for `CNC1Cc2ccccc2N(C)c2ccccc21` (stereo unspecified) [METAPRAMINE], the half-maximal activity concentration (AC50) in experiment [1], in experiment [2], in [3], in experiment [4], in experiment [6] and in experiment [7] was greater than 30 µM each time. The compound also showed an AC50 in experiment [8] greater than 30 µM.
Consider `C1CCC(C(CC2CCCCN2)C2CCCCC2)CC1` (stereo unspecified) [PERHEXILINE], for which the AC50 in [1], in experiment [2], in [3], in experiment [4], in experiment [6] and in experiment [7] was greater than 30 µM in each case. Moreover, in experiment [8], the AC50 was greater than 30 µM.
Regarding `CN(C)CCC=C1c2ccccc2C(C)(C)c2ccccc21`, the AC50 was greater than 30 µM in experiment [1]; greater than 30 µM in [2]; 4.5 µM in experiment [3]; greater than 30 µM in experiment [4]; greater than 30 µM in experiment [6]; greater than 30 µM in experiment [7]. This compound also displayed an AC50 in experiment [8] greater than 30 µM.
Take `CC(C)C[C@H]1C(=O)N2CCC[C@H]2[C@]2(O)O[C@](NC(=O)[C@@H]3C=C4c5cccc6[nH]c(Br)c(c56)C[C@H]4N(C)C3)(C(C)C)C(=O)N12` [BROMOCRIPTINE]: the AC50 in experiment [9] is greater than 30 µM; in [10], greater than 10 µM; in experiment [1], greater than 30 µM; in experiment [11] it was greater than 10 µM; in experiment [2] it was greater than 30 µM; in experiment [3] it was greater than 30 µM. Further, the figures for the half-maximal activity concentration (AC50) in experiment [7], in experiment [12] and in [8] were greater than 30 µM, 1.69 µM and greater than 30 µM, respectively.
As for `C[C@@H](O)[C@H]1C(=O)N2C(C(=O)O)=C(S[C@@H]3CN[C@H](C(=O)N(C)C)C3)[C@H](C)[C@H]12` [MEROPENEM], the half-maximal activity concentration (AC50) in experiment [1], in [2], in [3], in experiment [7] and in [8] was greater than 300 µM each time.
As for `Cc1c(C(=O)NN2CCCCC2)nn(-c2ccc(Cl)cc2Cl)c1-c1ccc(Cl)cc1` [RIMONABANT], the AC50 in [9] is greater than 30 µM; in experiment [1], greater than 30 µM; in [11] it was greater than 10 µM; in experiment [2] it was greater than 30 µM; in experiment [3], 26 µM; in experiment [4], greater than 10 µM. Also, the AC50 was greater than 30 µM in experiment [6]; greater than 30 µM in experiment [7]; 10.9 µM in experiment [12]; greater than 30 µM in experiment [8]; greater than 30 µM in experiment [13].
Turning to `COc1ccc(CC(C)(C)NC[C@H](O)c2cc(O)cc3c2OCC(=O)N3)cc1` [OLODATEROL], the AC50 in [1], in experiment [2], in experiment [3], in [4], in [6] and in experiment [7] was greater than 30 µM in each case. In addition, the concentration at half-maximal activity (AC50) in [8] is greater than 30 µM.
Turning to `C[C@H]1CNCCc2ccc(Cl)cc21` [LORCASERIN], the AC50 in experiment [1], in experiment [2], in experiment [3], in [4], in experiment [6] and in experiment [7] was greater than 30 µM each time. This compound also returned an AC50 in [8] greater than 30 µM.
In the case of `N[C@@H]1[C@H]2CN(c3nc4c(cc3F)c(=O)c(C(=O)O)cn4-c3ccc(F)cc3F)C[C@@H]12` [TROVAFLOXACIN], the AC50 in experiment [2], in experiment [3], in [4], in experiment [6], in experiment [7] and in experiment [8] was greater than 30 µM each time.
As to `c1cnc(N2CCN(Cc3ccc4c(c3)OCO4)CC2)nc1` [PIRIBEDIL], the half-maximal activity concentration (AC50) in experiment [1], in [2], in experiment [3], in [4], in experiment [6] and in [7] was greater than 30 µM each time. In experiment [8], this compound came in with a half-maximal activity concentration (AC50) greater than 30 µM.
